Measurements as given in PubChem BioAssay (NCI).
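A five-concentration, 48-hour dose response in 96-well plates underlies each endpoint, interpolated linearly between surrounding concentrations. TGI marks complete inhibition of growth.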

Columns and labels:
Assay in all cases: NCI tumour cell line growth inhibition, 48 h
M19-MEL melanoma = system: M19-MEL melanoma
IGROV1 ovarian = system: IGROV1 ovarian
EKVX NSCLC = system: EKVX NSCLC
XF 498 CNS = system: XF 498 CNS
UO-31 renal = system: UO-31 renal
OVCAR-4 ovarian = system: OVCAR-4 ovarian
RPMI-8226 leukemia = system: RPMI-8226 leukemia
SK-MEL-5 melanoma = system: SK-MEL-5 melanoma
HL-60(TB) leukemia = system: HL-60(TB) leukemia
M14 melanoma = system: M14 melanoma
MALME-3M melanoma = system: MALME-3M melanoma
KM20L2 colon = system: KM20L2 colon
SK-MEL-28 melanoma = system: SK-MEL-28 melanoma
SNB-75 CNS = system: SNB-75 CNS
CCRF-CEM leukemia = system: CCRF-CEM leukemia
OVCAR-8 ovarian = system: OVCAR-8 ovarian
KM12 colon = system: KM12 colon
SF-295 CNS = system: SF-295 CNS
HT29 colon = system: HT29 colon
RXF 393 renal = system: RXF 393 renal
A498 renal = system: A498 renal
OVCAR-5 ovarian = system: OVCAR-5 ovarian
SF-268 CNS = system: SF-268 CNS
SNB-19 CNS = system: SNB-19 CNS
UACC-62 melanoma = system: UACC-62 melanoma
NCI-H23 lung = system: NCI-H23 lung
HOP-92 NSCLC = system: HOP-92 NSCLC
LXFL 529 NSCLC = system: LXFL 529 NSCLC
HCT-116 colon = system: HCT-116 colon
A549 NSCLC = system: A549 NSCLC
MOLT-4 leukemia = system: MOLT-4 leukemia
TK-10 renal = system: TK-10 renal
HCC-2998 colon = system: HCC-2998 colon
K-562 leukemia = system: K-562 leukemia
CAKI-1 renal = system: CAKI-1 renal
SNB-78 CNS = system: SNB-78 CNS
SF-539 CNS = system: SF-539 CNS
HOP-62 NSCLC = system: HOP-62 NSCLC
ACHN renal = system: ACHN renal
SK-OV-3 ovarian = system: SK-OV-3 ovarian
SK-MEL-2 melanoma = system: SK-MEL-2 melanoma
NCI-H460 lung = system: NCI-H460 lung
SR leukemia = system: SR leukemia
SW-620 colon = system: SW-620 colon
HOP-18 NSCLC = system: HOP-18 NSCLC
OVCAR-3 ovarian = system: OVCAR-3 ovarian
DMS 273 small cell lung = system: DMS 273 small cell lung
786-0 renal = system: 786-0 renal
HCT-15 colon = system: HCT-15 colon
NCI-H522 lung = system: NCI-H522 lung
COLO 205 colon = system: COLO 205 colon
NCI-H226 lung = system: NCI-H226 lung
UACC-257 melanoma = system: UACC-257 melanoma
LOX IMVI melanoma = system: LOX IMVI melanoma
U251 CNS = system: U251 CNS
SN12C renal = system: SN12C renal
DLD-1 colon = system: DLD-1 colon
DMS 114 small cell lung = system: DMS 114 small cell lung

## CCN1/C(=C/C(C)=C/c2sc3ccccc3[n+]2CC)Sc2ccccc21
M19-MEL melanoma
  TGI: 2.16 µM
IGROV1 ovarian
  TGI: 2 µM
EKVX NSCLC
  TGI: 1.4 µM
XF 498 CNS
  TGI: 0.663 µM
UO-31 renal
  TGI: 1.47 µM
OVCAR-4 ovarian
  TGI: 1.62 µM
RPMI-8226 leukemia
  TGI: 4.48 µM
SK-MEL-5 melanoma
  TGI: 1.11 µM
HL-60(TB) leukemia
  TGI: 4.78 µM
M14 melanoma
  TGI: 0.847 µM
MALME-3M melanoma
  TGI: 1.71 µM
KM20L2 colon
  TGI: 2.03 µM
SK-MEL-28 melanoma
  TGI: 1.22 µM
SNB-75 CNS
  TGI: 1.15 µM
CCRF-CEM leukemia
  TGI: 0.166 µM
OVCAR-8 ovarian
  TGI: 1.37 µM
KM12 colon
  TGI: 1.21 µM
SF-295 CNS
  TGI: 0.491 µM
HT29 colon
  TGI: 1.72 µM
RXF 393 renal
  TGI: 1.59 µM
A498 renal
  TGI: 1.82 µM
OVCAR-5 ovarian
  TGI: 1.73 µM
SF-268 CNS
  TGI: 1.76 µM
SNB-19 CNS
  TGI: 0.0976 µM
UACC-62 melanoma
  TGI: 1.21 µM
NCI-H23 lung
  TGI: 0.824 µM
HOP-92 NSCLC
  TGI: 0.338 µM
LXFL 529 NSCLC
  TGI: 1.2 µM
HCT-116 colon
  TGI: 1.42 µM
A549 NSCLC
  TGI: 1.42 µM
MOLT-4 leukemia
  TGI: 1.15 µM
TK-10 renal
  TGI: 1.37 µM
HCC-2998 colon
  TGI: 0.876 µM
K-562 leukemia
  TGI: 1.24 µM
CAKI-1 renal
  TGI: 0.693 µM
SNB-78 CNS
  TGI: 2.51 µM
SF-539 CNS
  TGI: 1.11 µM
HOP-62 NSCLC
  TGI: 0.391 µM
ACHN renal
  TGI: 3.13 µM
SK-OV-3 ovarian
  TGI: 0.375 µM
SK-MEL-2 melanoma
  TGI: 1.1 µM
NCI-H460 lung
  TGI: 0.517 µM
SR leukemia
  TGI: 1.75 µM

## CC(=O)Nc1ccc(-c2nnc(SCC(=O)Nc3ccc(C)cc3)o2)cc1
M19-MEL melanoma
  TGI: 32.9 µM
IGROV1 ovarian
  TGI: 28.6 µM
SW-620 colon
  TGI: 33.3 µM
UO-31 renal
  TGI: > 100 µM
HOP-18 NSCLC
  TGI: 31.3 µM
OVCAR-4 ovarian
  TGI: 32.6 µM
RPMI-8226 leukemia
  TGI: 74.7 µM
OVCAR-3 ovarian
  TGI: 37.2 µM
SK-MEL-5 melanoma
  TGI: 27.8 µM
HL-60(TB) leukemia
  TGI: 64.4 µM
M14 melanoma
  TGI: 29.8 µM
DMS 273 small cell lung
  TGI: 30.1 µM
MALME-3M melanoma
  TGI: 30.8 µM
KM20L2 colon
  TGI: 36.5 µM
786-0 renal
  TGI: 33.4 µM
HCT-15 colon
  TGI: 30 µM
SK-MEL-28 melanoma
  TGI: 31.4 µM
SNB-75 CNS
  TGI: 58.6 µM
CCRF-CEM leukemia
  TGI: > 100 µM
NCI-H522 lung
  TGI: 33 µM
OVCAR-8 ovarian
  TGI: 70.8 µM
COLO 205 colon
  TGI: 31.6 µM
KM12 colon
  TGI: 37.8 µM
SF-295 CNS
  TGI: 35.5 µM
HT29 colon
  TGI: 31.1 µM
RXF 393 renal
  TGI: 33.2 µM
OVCAR-5 ovarian
  TGI: 39.8 µM
SF-268 CNS
  TGI: 44.2 µM
UACC-62 melanoma
  TGI: 30.7 µM
NCI-H23 lung
  TGI: 29.6 µM
HOP-92 NSCLC
  TGI: 33.4 µM
LXFL 529 NSCLC
  TGI: 30.5 µM
HCT-116 colon
  TGI: 29.1 µM
A549 NSCLC
  TGI: > 100 µM
MOLT-4 leukemia
  TGI: > 100 µM
NCI-H226 lung
  TGI: 52.4 µM
TK-10 renal
  TGI: 53.6 µM
UACC-257 melanoma
  TGI: 42 µM
K-562 leukemia
  TGI: > 100 µM
CAKI-1 renal
  TGI: 24.9 µM
SNB-78 CNS
  TGI: 34.7 µM
SF-539 CNS
  TGI: 27.3 µM
LOX IMVI melanoma
  TGI: 31.8 µM
U251 CNS
  TGI: 33.6 µM
HOP-62 NSCLC
  TGI: > 100 µM
SN12C renal
  TGI: 30 µM
ACHN renal
  TGI: 70.3 µM
DLD-1 colon
  TGI: 30.2 µM
SK-OV-3 ovarian
  TGI: > 100 µM
SK-MEL-2 melanoma
  TGI: 34.4 µM
NCI-H460 lung
  TGI: 42.7 µM
DMS 114 small cell lung
  TGI: 28.2 µM
SR leukemia
  TGI: 98.2 µM
